Measurements published in PubChem BioAssay (NCI).
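Tested at 5 concentrations; 48 h exposure; 96-well plates; endpoints linearly interpolated, else capped at highest concentration. Here, GI50 denotes the concentration required for 50% inhibition of growth. TGI denotes the concentration required for complete inhibition of growth.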

Key:
Test in all cases: NCI tumour cell line growth inhibition, 48 h
MDA-MB-231 breast = test system: MDA-MB-231 breast
U251 CNS = test system: U251 CNS
SK-MEL-5 melanoma = test system: SK-MEL-5 melanoma
MCF7 breast = test system: MCF7 breast
MALME-3M melanoma = test system: MALME-3M melanoma
KM12 colon = test system: KM12 colon
SNB-75 CNS = test system: SNB-75 CNS
HCC-2998 colon = test system: HCC-2998 colon
M14 melanoma = test system: M14 melanoma
HOP-62 NSCLC = test system: HOP-62 NSCLC
ACHN renal = test system: ACHN renal
SK-MEL-2 melanoma = test system: SK-MEL-2 melanoma
NCI-H460 lung = test system: NCI-H460 lung
DU-145 prostate = test system: DU-145 prostate
UO-31 renal = test system: UO-31 renal
CAKI-1 renal = test system: CAKI-1 renal
PC-3 prostate = test system: PC-3 prostate
T-47D breast = test system: T-47D breast
HCT-15 colon = test system: HCT-15 colon
MDA-MB-468 breast = test system: MDA-MB-468 breast
NCI/ADR-RES ovarian = test system: NCI/ADR-RES ovarian
A549 NSCLC = test system: A549 NSCLC
RXF 393 renal = test system: RXF 393 renal
NCI-H23 lung = test system: NCI-H23 lung
HS 578T breast = test system: HS 578T breast
MOLT-4 leukemia = test system: MOLT-4 leukemia
NCI-H522 lung = test system: NCI-H522 lung
SF-295 CNS = test system: SF-295 CNS
HT29 colon = test system: HT29 colon
TK-10 renal = test system: TK-10 renal
SW-620 colon = test system: SW-620 colon
NCI-H226 lung = test system: NCI-H226 lung
786-0 renal = test system: 786-0 renal
OVCAR-5 ovarian = test system: OVCAR-5 ovarian
UACC-257 melanoma = test system: UACC-257 melanoma
OVCAR-8 ovarian = test system: OVCAR-8 ovarian
RPMI-8226 leukemia = test system: RPMI-8226 leukemia
LOX IMVI melanoma = test system: LOX IMVI melanoma
OVCAR-4 ovarian = test system: OVCAR-4 ovarian
SF-539 CNS = test system: SF-539 CNS
BT-549 breast = test system: BT-549 breast
SK-MEL-28 melanoma = test system: SK-MEL-28 melanoma
K-562 leukemia = test system: K-562 leukemia
IGROV1 ovarian = test system: IGROV1 ovarian
SN12C renal = test system: SN12C renal
HCT-116 colon = test system: HCT-116 colon
UACC-62 melanoma = test system: UACC-62 melanoma
MDA-MB-435 = test system: MDA-MB-435
SF-268 CNS = test system: SF-268 CNS
SNB-19 CNS = test system: SNB-19 CNS
A498 renal = test system: A498 renal
OVCAR-3 ovarian = test system: OVCAR-3 ovarian
CCRF-CEM leukemia = test system: CCRF-CEM leukemia
HL-60(TB) leukemia = test system: HL-60(TB) leukemia
HOP-92 NSCLC = test system: HOP-92 NSCLC
SK-OV-3 ovarian = test system: SK-OV-3 ovarian
EKVX NSCLC = test system: EKVX NSCLC
COLO 205 colon = test system: COLO 205 colon

Structure (SMILES): CCOc1ccccc1NC(=O)N/C(N)=N/c1nc2ccccc2s1
- GI50 (MDA-MB-231 breast): < 0.0162 µM
- TGI (MDA-MB-231 breast): 0.744 µM
- GI50 (U251 CNS): < 0.0164 µM
- TGI (U251 CNS): 13.7 µM
- GI50 (SK-MEL-5 melanoma): < 0.0141 µM
- TGI (SK-MEL-5 melanoma): 0.0341 µM
- GI50 (MCF7 breast): 0.0265 µM
- TGI (MCF7 breast): 23.3 µM
- GI50 (MALME-3M melanoma): < 0.0185 µM
- TGI (MALME-3M melanoma): 45.1 µM
- GI50 (KM12 colon): < 0.0138 µM
- TGI (KM12 colon): > 45.8 µM
- GI50 (SNB-75 CNS): < 0.01 µM
- TGI (SNB-75 CNS): > 69.1 µM
- GI50 (HCC-2998 colon): 0.0242 µM
- TGI (HCC-2998 colon): 10.9 µM
- GI50 (M14 melanoma): < 0.014 µM
- TGI (M14 melanoma): 23.2 µM
- GI50 (HOP-62 NSCLC): < 0.02 µM
- TGI (HOP-62 NSCLC): 20 µM
- GI50 (ACHN renal): < 0.0152 µM
- TGI (ACHN renal): 22.7 µM
- GI50 (SK-MEL-2 melanoma): 0.0259 µM
- TGI (SK-MEL-2 melanoma): 42.5 µM
- GI50 (NCI-H460 lung): 0.0264 µM
- TGI (NCI-H460 lung): 10.9 µM
- GI50 (DU-145 prostate): 0.0287 µM
- TGI (DU-145 prostate): 11.9 µM
- GI50 (UO-31 renal): < 0.0308 µM
- TGI (UO-31 renal): > 88.6 µM
- GI50 (CAKI-1 renal): < 0.0141 µM
- TGI (CAKI-1 renal): > 49 µM
- GI50 (PC-3 prostate): 0.0252 µM
- TGI (PC-3 prostate): > 74.6 µM
- GI50 (T-47D breast): 13.9 µM
- TGI (T-47D breast): > 100 µM
- GI50 (HCT-15 colon): < 0.0168 µM
- TGI (HCT-15 colon): 12.6 µM
- GI50 (MDA-MB-468 breast): 0.0233 µM
- TGI (MDA-MB-468 breast): 0.0615 µM
- GI50 (NCI/ADR-RES ovarian): < 0.01 µM
- TGI (NCI/ADR-RES ovarian): 0.0298 µM
- GI50 (A549 NSCLC): 0.0532 µM
- TGI (A549 NSCLC): > 53.1 µM
- GI50 (RXF 393 renal): < 0.0129 µM
- TGI (RXF 393 renal): 40 µM
- GI50 (NCI-H23 lung): < 0.0186 µM
- TGI (NCI-H23 lung): 23 µM
- GI50 (HS 578T breast): < 0.0107 µM
- TGI (HS 578T breast): > 78.6 µM
- GI50 (MOLT-4 leukemia): 0.0388 µM
- TGI (MOLT-4 leukemia): > 33.5 µM
- GI50 (NCI-H522 lung): < 0.01 µM
- TGI (NCI-H522 lung): 0.0201 µM
- GI50 (SF-295 CNS): < 0.0164 µM
- TGI (SF-295 CNS): 13.8 µM
- GI50 (HT29 colon): 0.021 µM
- TGI (HT29 colon): 0.0673 µM
- GI50 (TK-10 renal): > 39.4 µM
- TGI (TK-10 renal): > 100 µM
- GI50 (SW-620 colon): < 0.0175 µM
- TGI (SW-620 colon): > 42.3 µM
- GI50 (NCI-H226 lung): 0.0435 µM
- TGI (NCI-H226 lung): 1.48 µM
- GI50 (786-0 renal): 0.0296 µM
- TGI (786-0 renal): 13.3 µM
- GI50 (OVCAR-5 ovarian): 0.0378 µM
- TGI (OVCAR-5 ovarian): > 41 µM
- GI50 (UACC-257 melanoma): 32 µM
- TGI (UACC-257 melanoma): > 100 µM
- GI50 (OVCAR-8 ovarian): < 0.0172 µM
- TGI (OVCAR-8 ovarian): 26.9 µM
- GI50 (RPMI-8226 leukemia): 0.0371 µM
- TGI (RPMI-8226 leukemia): > 39.7 µM
- GI50 (LOX IMVI melanoma): < 0.0148 µM
- TGI (LOX IMVI melanoma): 15.1 µM
- GI50 (OVCAR-4 ovarian): 11.1 µM
- TGI (OVCAR-4 ovarian): 63.6 µM
- GI50 (SF-539 CNS): < 0.0119 µM
- TGI (SF-539 CNS): < 0.0225 µM
- GI50 (BT-549 breast): 0.0246 µM
- TGI (BT-549 breast): 0.126 µM
- GI50 (SK-MEL-28 melanoma): 14.5 µM
- TGI (SK-MEL-28 melanoma): > 100 µM
- GI50 (K-562 leukemia): < 0.01 µM
- TGI (K-562 leukemia): > 35.6 µM
- GI50 (IGROV1 ovarian): 0.0274 µM
- TGI (IGROV1 ovarian): 30.1 µM
- GI50 (SN12C renal): 0.0272 µM
- TGI (SN12C renal): 13.8 µM
- GI50 (HCT-116 colon): < 0.0157 µM
- TGI (HCT-116 colon): 0.31 µM
- GI50 (UACC-62 melanoma): < 0.01 µM
- TGI (UACC-62 melanoma): > 55.6 µM
- GI50 (MDA-MB-435): < 0.01 µM
- TGI (MDA-MB-435): 0.0146 µM
- GI50 (SF-268 CNS): 0.0846 µM
- TGI (SF-268 CNS): > 100 µM
- GI50 (SNB-19 CNS): 0.031 µM
- TGI (SNB-19 CNS): 53.8 µM
- GI50 (A498 renal): 22.1 µM
- TGI (A498 renal): 44.6 µM
- GI50 (OVCAR-3 ovarian): < 0.01 µM
- TGI (OVCAR-3 ovarian): 11.4 µM
- GI50 (CCRF-CEM leukemia): 0.0289 µM
- TGI (CCRF-CEM leukemia): > 32.5 µM
- GI50 (HL-60(TB) leukemia): 0.0177 µM
- TGI (HL-60(TB) leukemia): 0.0596 µM
- GI50 (HOP-92 NSCLC): 6.33 µM
- TGI (HOP-92 NSCLC): > 58.7 µM
- GI50 (SK-OV-3 ovarian): 0.0491 µM
- TGI (SK-OV-3 ovarian): > 77.4 µM
- GI50 (EKVX NSCLC): 0.0458 µM
- TGI (EKVX NSCLC): 35 µM
- GI50 (COLO 205 colon): 0.0301 µM
- TGI (COLO 205 colon): 0.106 µM

Structure (SMILES): COc1ccc(/C=C/C(=O)c2cc3c(N)c(C(=O)Nc4ccccc4Cl)sc3nc2C)cc1
- GI50 (MDA-MB-468 breast): 0.279 µM
- TGI (MDA-MB-468 breast): 4.1 µM

Structure (SMILES): CC(C)Oc1cc2c(cc1O)CC[C@@H]1[C@@H]2CC[C@]2(C)[C@@H](O)CC[C@@H]12
- GI50 (MDA-MB-468 breast): 4.16 µM
- TGI (MDA-MB-468 breast): 25.6 µM

Structure (SMILES): N[C@@H](Cc1c[nH]c2ccccc12)C(=O)NC1CCN(C(=O)c2c[nH]c3ccccc23)CC1
- GI50 (MDA-MB-468 breast): 54.2 µM
- TGI (MDA-MB-468 breast): > 100 µM

Structure (SMILES): CCCCn1c2cc(OCc3cn(-c4ccc(Cl)cc4)nn3)ccc2c2ccnc(C)c21
- GI50 (MDA-MB-468 breast): 5.23 µM
- TGI (MDA-MB-468 breast): > 33.3 µM

Structure (SMILES): c1ccc(Cc2nc3ccc(Nc4ncnc5ccccc45)cc3[nH]2)cc1
- GI50 (MDA-MB-468 breast): 6.65 µM
- TGI (MDA-MB-468 breast): 24.3 µM

Structure (SMILES): CN(C)CCCn1c2c(c3cnccc3c1=O)C(=O)c1ccccc1-2
- GI50 (MDA-MB-468 breast): 0.352 µM
- TGI (MDA-MB-468 breast): 2.54 µM

Structure (SMILES): Oc1ccc(/C=N\Nc2ccccn2)c(O)c1
- GI50 (MDA-MB-468 breast): 2.43 µM
- TGI (MDA-MB-468 breast): 8.56 µM

Structure (SMILES): C(=N\Nc1ccccn1)/c1ccccn1
- GI50 (MDA-MB-468 breast): 0.237 µM
- TGI (MDA-MB-468 breast): 0.748 µM

Structure (SMILES): OCc1cn(Cc2cccc(Cl)c2)c2ccccc12
- GI50 (MDA-MB-468 breast): 0.0134 µM
- TGI (MDA-MB-468 breast): 0.0333 µM

Structure (SMILES): Oc1ccc(Cc2ccc(O)c3ncccc23)c2cccnc12
- GI50 (MDA-MB-468 breast): 0.278 µM
- TGI (MDA-MB-468 breast): 0.902 µM

Structure (SMILES): COc1ccccc1-[n+]1cc(-c2ccc(-c3ccccc3)cc2)n2c1CCCCC2
- TGI (MDA-MB-468 breast): 0.838 µM

Structure (SMILES): CCN(CC)c1ccc(/C=C\c2cc(C)c3cc(C)ccc3n2)cc1
- GI50 (MDA-MB-468 breast): 3.02 µM
- TGI (MDA-MB-468 breast): 20.3 µM
